Consider 1 compound from EP3431468B1, “USE OF ADIPONECTIN RECEPTOR AGONISTS IN TREATING DEPRESSION, ANXIETY AND NEUROINFLAMMATION” (CENTRE NATIONAL DE LA RECHERCHE SCIENTIFIQUE, priority 2017, dated 2019).

Data set [1] concerns corticosterone-treated mice. Briefly: Forced Swimming test (FST), chronic administration. Format: in vivo. To be noted: chronic 1mg/kg ip daily. The procedure:
Three well-established mouse models of depression-like behavior have been used in the present study namely i- the long-term corticosterone treatment in the drinking water (David, Samuels et al. 2009), ii- the peripheral administration of LPS (O'Connor, Lawson et al. 2009) iii- the ApN^-/- mice (Liu, Guo et al. 2012). For chronic AdipoRon treatment, the experimental protocol was as followed: • i- Five weeks old male mice (five/cage) received corticosterone (35mg/L dissolved in tap water containing 4 g/L CD) or vehicle alone ad libitum for during 7 consecutive weeks (David, Samuels et al. 2009). Corticosterone and vehicle solutions were changed every 3 days to prevent possible degradation. […]
All behavioral testing were conducted during the light phase (between 09:00 and 14:00 am) in compliance with the Institutional Animal Care and Use Committee of the University of Nice-Sophia Antipolis (permission number 010344.01 from the French "Ministère de l'Enseignement Supérieur et de la Recherche" granted to Dr. Joëlle Chabry). • Forced Swimming test (FST) - Mice were placed an inescapable transparent tank (20cm diameter, 30cm deep) filled with water (23°C ± 0.5) for six minutes as previously described by Porsolt et al. (1977). […] To initiate testing, mice were placed into the light side and activity was recorded for 5 minutes. […]

Data set [2] is described as follows: Weight, food and water intake under chronic treatment. Format: in vivo, mice. The conditions noted are these: chronic AdipoRon treatment. The procedure: Three well-established mouse models of depression-like behavior have been used in the present study namely i- the long-term corticosterone treatment in the drinking water (David, Samuels et al. 2009), ii- the peripheral administration of LPS (O'Connor, Lawson et al. 2009) iii- the ApN^-/- mice (Liu, Guo et al. 2012). For chronic AdipoRon treatment, the experimental protocol was as followed: • i- Five weeks old male mice (five/cage) received corticosterone (35mg/L dissolved in tap water containing 4 g/L CD) or vehicle alone ad libitum for during 7 consecutive weeks (David, Samuels et al. 2009). Corticosterone and vehicle solutions were changed every 3 days to prevent possible degradation. Additionally, during the last three weeks of corticosterone treatment, mice were daily intraperitoneally (ip) injected with AdipoRon (1mg/kg in 2.5% DMSO) or vehicle alone. • ii- Eight weeks old male mice daily ip injected with AdipoRon or vehicle as described above for twenty consecutive days. One day prior behavioral testing, mice were injected ip with LPS (0.83 mg/kg) or saline solution; the LPS dose was selected on the basis of its ability to induce the full spectrum of the acute sickness and depressive-like behaviors (Lestage, Verrier et al. 2002).

A further data set has as its system serotonin pathway. As to the kind of experiment: 5-HT and 5-HIAA levels in dorsal raphe nucleus. The conditions noted are these: corticosterone-exposed mice, chronic AdipoRon. It counts as in vivo.
The target in a further data set is T1, AdipoRl (Homo sapiens, UniProt Q96A54).
T1 sequence (Q96A54 1-375): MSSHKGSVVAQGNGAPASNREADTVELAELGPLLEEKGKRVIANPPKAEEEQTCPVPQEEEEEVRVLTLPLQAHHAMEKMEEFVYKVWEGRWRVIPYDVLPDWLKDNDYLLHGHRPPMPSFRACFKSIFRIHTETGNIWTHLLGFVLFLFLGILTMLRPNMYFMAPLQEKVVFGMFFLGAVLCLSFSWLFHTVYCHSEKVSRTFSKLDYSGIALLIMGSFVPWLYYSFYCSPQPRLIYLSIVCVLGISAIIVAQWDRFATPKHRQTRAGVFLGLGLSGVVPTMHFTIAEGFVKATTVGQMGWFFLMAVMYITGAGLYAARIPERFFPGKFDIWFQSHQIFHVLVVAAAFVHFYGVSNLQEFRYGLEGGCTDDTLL
To be noted: Okada-Iwabu, Yamauchi et al. 2013; cited from earlier work.

`O=C(COc1ccc(C(=O)c2ccccc2)cc1)NC1CCN(Cc2ccccc2)CC1` [AdipoRon, 2-(4-Benzoylphenoxy)-N-[1-(phenylmethyl)-4-piperidinyl]-acetamide]: the “immobility duration in the FST (resignation)” value in data set [1] (corticosterone-treated mice) is given as “reversed the effect of corticosterone”. In addition, in data set [1] (vehicle-treated mice (no corticosterone)), the “immobility duration in the FST (resignation)” value was “no significant effect”. In data set [2], the “food and water intake” value is “did not significantly modify”; the weight of mice entry is on record as “did not significantly modify”. Also, in the data set on serotonin pathway, the 5-HT level result is “without modifying the 5-HT level”, the “level of 5-HIAA” value was “increased the level of 5-HIAA” and the “ratio 5-HIAA/5-HT” value is on record as “threefold increase”. At AdipoRl, the “binding to adiponectin receptor” value was “bind”.
